How the values were obtained:
Assay type in all cases: functional
Pseudonocardia [1] = assay: Antimicrobial activity against Pseudonocardia 17SM-1 at 0.1 ug measured on day 5 by agar diffusion assay; conditions: 17SM-1, 120 h, read-out: DIZ
Candida albicans = assay: Antimicrobial activity against Candida albicans SC5314 at 0.1 ug measured at 24 hrs by agar diffusion assay; conditions: SC5314, 24 h, read-out: DIZ
Bacillus subtilis = assay: Antimicrobial activity against Bacillus subtilis 3610 at 0.1 ug measured at 24 hrs by agar diffusion assay; conditions: Bacillus subtilis, 3610, 24 h; read-out: DIZ
Pseudonocardia [2] = assay: Antimicrobial activity against Pseudonocardia 18PO-3 at 0.1 ug measured on day 5 by agar diffusion assay; conditions: 18PO-3, 120 h, read-out: DIZ
Escovopsis sp. = assay: Antimicrobial activity against Escovopsis sp. at 0.1 ug measured on day 5 by agar diffusion assay; conditions: 120 h, read-out: DIZ
Pseudonocardia [3] = assay: Antimicrobial activity against Pseudonocardia 17SE-8 at 0.1 ug measured on day 5 by agar diffusion assay; conditions: 17SE-8, 120 h, read-out: DIZ
Pseudonocardia [4] = assay: Antimicrobial activity against Pseudonocardia PLR1 at 0.1 ug measured on day 5 by agar diffusion assay; conditions: PLR1, 120 h, read-out: DIZ
Pseudonocardia [5] = assay: Antimicrobial activity against Pseudonocardia 17SE-9 at 0.1 ug measured on day 5 by agar diffusion assay; conditions: 17SE-9, 120 h, read-out: DIZ
Pseudonocardia [6] = assay: Antimicrobial activity against Pseudonocardia 17SE-10 at 0.1 ug measured on day 5 by agar diffusion assay; conditions: 17SE-10, 120 h, read-out: DIZ
Trichoderma harzianum = assay: Antimicrobial activity against Trichoderma harzianum T22 at 0.1 ug measured on day 5 by agar diffusion assay; conditions: T22, 120 h, read-out: DIZ
Pseudonocardia [7] = assay: Antimicrobial activity against Pseudonocardia 18AZ-4 at 0.1 ug measured on day 5 by agar diffusion assay; conditions: 18AZ-4, 120 h, read-out: DIZ

For `C=C(NC(=O)C(=C)NC(=O)c1csc(-c2ccc3c(n2)-c2csc(n2)-c2csc(n2)[C@@H]2C(C)C[C@H](O)N2C(=O)[C@H](Cc2ccc(O)cc2)NC(=O)C2CSC(=N2)[C@H](Cc2ccccc2)NC(=O)c2csc(n2)[C@H](CC(N)=O)NC(=O)c2nc-3oc2C)n1)C(=O)O` (stereo partly specified), the zone of inhibition at 0.1 µg/disc (Pseudonocardia [1]) was 28.3 mm, the zone of inhibition at 0.1 µg/disc (Candida albicans) was 0 mm and the zone of inhibition at 0.1 µg/disc (Bacillus subtilis) was 9.7 mm. It also gave a zone of inhibition at 0.1 µg/disc (Pseudonocardia [2]) of 20 mm, a zone of inhibition at 0.1 µg/disc (Escovopsis sp.) of 0 mm and a zone of inhibition at 0.1 µg/disc (Pseudonocardia [3]) of 18.7 mm. For the same molecule, the zone of inhibition at 0.1 µg/disc (Pseudonocardia [4]) was 18 mm, the zone of inhibition at 0.1 µg/disc (Pseudonocardia [5]) was 0 mm and the zone of inhibition at 0.1 µg/disc (Pseudonocardia [6]) was 13.7 mm. For the same molecule, the zone of inhibition at 0.1 µg/disc (Trichoderma harzianum) was 0 mm and the zone of inhibition at 0.1 µg/disc (Pseudonocardia [7]) was 23 mm.

Source: ChEMBL document CHEMBL4613242, “Thiopeptide Defense by an Ant's Bacterial Symbiont” (2020)
